The values below come from US8461181B2, “Fused heterocyclic compound and use thereof” (Sumitomo Chemical Company, Ltd., priority 2009, dated 2013).

The pest or weed control is the degree to which the test organism was suppressed or injured, in per cent.

One test concerns Aphis gossypii. Put plainly: Test Example 3: root immersion of cucumber seedling, Aphis gossypii. Type of test: in vivo. As to conditions: 168 h, cucumber root part immersed in 5 ml, inoculated one day after treatment, checked seven days after. The protocol: The formulations of the present active compounds (18), (19), (21), (22), (24), (25), (28), (31) to (34), (46), (47), (52), (53), (101) to (104), (106) to (108), (112) to (114), (117), (118), (122), (123), (126), (128), (129), (133), (134), (138), (144), (153) to (155) and (157) obtained by Formulation Example 5 were diluted with water so that the active ingredient concentration was 500 ppm, to prepare diluted solutions for test. A root part of a cucumber seedling (first true leaf spreading stage) from which soil had been washed off was immersed in 5 ml of this diluted solution, and one day after treatment, the cucumber leaf surface was inoculated with 30 Aphis gossypii (whole stage). Further seven days after, the number of insect of living Aphis gossypii […] on the leaves of this cucumber was checked, and the control value was calculated according to the following formula. Control value (%)={1-(Cb×Tai)/(Cai×Tb)}×100 Letters in the formula represent the following meanings. Cb: the number of insect before treatment on non-treated district Cai: the number of insect in observation on non-treated district Tb: the number of insect before treatment on treated district Tai: the number of insect in observation on treated district
With `Cn1c(-c2ccncc2S(C)(=O)=O)nc2cc(C(F)(F)F)ccc21` [present active compound 19, 2-(3-methanesulfonylpyridin-4-yl)-1-methyl-5-trifluoromethyl-1H-benzimidazole], the pest or weed control at 500 ppm was no less than 90%.

Regarding `CC[S+]([O-])c1cnccc1-c1nc2cc(C(F)(F)F)ccc2n1C` (stereo not drawn) [present active compound 21, 2-(3-ethanesulfinylpyridin-4-yl)-1-methyl-5-trifluoromethyl-1H-benzimidazole], the pest or weed control at 500 ppm is no less than 90%.

Turning to `Cn1c(-c2cc[n+]([O-])cc2)nc2cc(C(F)(F)F)ccc21` [present active compound 24, 1-methyl-2-(1-oxypyridin-4-yl)-5-trifluoromethyl-1H-benzimidazole], the pest or weed control at 500 ppm is no less than 90%.

In turn, `Fc1cnccc1-c1nc2cc(C(F)(F)F)ccc2n1C1CC1` [present active compound 28, 1-cyclopropyl-2-(3-fluoropyridin-4-yl)-5-trifluoromethyl-1H-benzimidazole] had a pest or weed control at 500 ppm of no less than 90%.

`CC[S+]([O-])c1cnccc1-c1nc2cc(C(F)(F)F)cnc2n1C` (stereo not drawn) [present active compound 52, 2-(3-ethanesulfinylpyridin-4-yl)-3-methyl-6-trifluoromethyl-3H-imidazo[4,5-b]pyridine] gave a pest or weed control at 500 ppm of no less than 90%.

The compound `Cn1c(-c2ccncc2SC(F)(F)F)nc2cc(C(F)(F)F)ccc21` [present active compound 122] showed a pest or weed control at 500 ppm of no less than 90%.

As to `Cn1c(-c2ccncc2SCC(F)F)nc2cc(C(F)(F)F)cnc21` [present active compound 123], the pest or weed control at 500 ppm was no less than 90%.

Regarding `Cn1c(-c2ccncc2SC(F)(F)C(F)F)nc2cc(C(F)(F)F)cnc21` [present active compound 126], the pest or weed control at 500 ppm is no less than 90%.

The compound `Cn1c(-c2ccncc2SCCF)nc2cc(C(F)(F)F)cnc21` [present active compound 128] came in with a pest or weed control at 500 ppm of no less than 90%.

On to `Cn1c(-c2ccncc2SCCF)nc2cc(C(F)(F)F)ccc21` [present active compound 129], for which the pest or weed control at 500 ppm was no less than 90%.

`C=CCSc1cnccc1-c1nc2cc(C(F)(F)F)cnc2n1C` [present active compound 133] gave a pest or weed control at 500 ppm of no less than 90%.

Turning to `C=CCSc1cnccc1-c1nc2cc(C(F)(F)F)ccc2n1C` [present active compound 134], the pest or weed control at 500 ppm is no less than 90%.

`CCNC(=O)c1cnccc1-c1nc2cc(C(F)(F)F)cnc2n1C` [present active compound 138] yielded a pest or weed control at 500 ppm of no less than 90%.

For `CCOC(=O)c1cnccc1-c1nc2cc(C(F)(F)F)cnc2n1C` [present active compound 144], the pest or weed control at 500 ppm was no less than 90%.

`COC(=O)CSc1cnccc1-c1nc2cc(C(F)(F)F)cnc2n1C` [present active compound 157] came in with a pest or weed control at 500 ppm of no less than 90%.

For another test, the system named is Aphis gossypii. The experiment in a line: Test Example 4: foot drench of cucumber seedling in plastic cup, inoculation after 7 days, Aphis gossypii. As to conditions: soil, 144 h, 5 ml drench at foot of cucumber seedling in plastic cup, kept 7 days at 25° C., inoculated, further 6 days. It is filed as in vivo. How it is done: The formulations of the present active compounds (3) to (7), (17), (19), (20), (22), (29) to (31), (35) to (37), (39), (41) to (45), (47) to (56), (101), (106), (121) to (123), (128), (131), (137), (139), (143), (145), (147), (211) to (213), (216) and (217) obtained by Formulation Example 5 were diluted with water so that the active ingredient concentration was 500 ppm, to prepare diluted solutions for test. Separately, a cucumber seedling (second true leaf spreading stage) planted on a plastic cup was drenched at its foot with each 5 ml of the diluted solutions, and kept in a greenhouse of 25° C. for 7 days. The cucumber leaf surface was inoculated with 30 Aphis gossypii (whole stage), and further kept in the greenhouse for 6 days, then, the number of insect of living Aphis gossypii […] on the leaves of this cucumber was checked, and the control value was calculated according to the following formula. Control value (%)={1-(Cb×Tai)/(Cai×Tb)}×100 Letters in the formula represent the following meanings. Cb: the number of insect before treatment on non-treated district Cai: the number of insect in observation on non-treated district Tb: the number of insect before treatment on treated district Tai: the number of insect in observation on treated district
`Cn1c(-c2ccncc2S(C)(=O)=O)nc2cc(C(F)(F)F)ccc21` [present active compound 19, 2-(3-methanesulfonylpyridin-4-yl)-1-methyl-5-trifluoromethyl-1H-benzimidazole] showed a pest or weed control at 500 ppm of no less than 90%.

Compound `CCOc1cnccc1-c1nc2cc(C(F)(F)F)cnc2n1C` [present active compound 39, 2-(3-ethoxypyridin-4-yl)-3-methyl-6-trifluoromethyl-3H-imidazo[4,5-b]pyridine] displayed a pest or weed control at 500 ppm of no less than 90%.

Compound `CC(C)Sc1cnccc1-c1nc2cc(C(F)(F)F)cnc2n1C` [present active compound 101] registered a pest or weed control at 500 ppm of no less than 90%.

Consider `Cn1c(-c2ccncc2SCCF)nc2cc(C(F)(F)F)cnc21` [present active compound 128], for which the pest or weed control at 500 ppm was no less than 90%.

Consider `CN(C)S(=O)(=O)c1cnccc1-c1nc2cc(C(F)(F)F)cnc2n1C` [present active compound 131], for which the pest or weed control at 500 ppm is no less than 90%.

The compound `CNC(=O)c1cnccc1-c1nc2cc(C(F)(F)F)cnc2n1C` [present active compound 137] returned a pest or weed control at 500 ppm of no less than 90%.

In turn, `COC(=O)c1cnccc1-c1nc2cc(C(F)(F)F)cnc2n1C` [present active compound 143] registered a pest or weed control at 500 ppm of no less than 90%.

Consider `Cn1c(-c2ccncc2SCC2CC2)nc2cc(C(F)(F)F)cnc21` [present active compound 145], for which the pest or weed control at 500 ppm was no less than 90%.

`COCCSc1cnccc1-c1nc2cc(C(F)(F)F)cnc2n1C` [present active compound 147] registered a pest or weed control at 500 ppm of no less than 90%.

A further test has as its system Nilaparvata lugens. The experiment in a line: Test Example 8: spray on rice seedling, 20 first instar larvae of Nilaparvata lugens. Type of test: in vivo. The conditions noted are these: 144 h, 10 ml sprayed on rice seedling, 20 first instar larvae released, 6 days at 25° C. How it is done: The formulations of the present active compounds (6), (7), (18), (21), (24), (25), (28) to (30), (32), (46), (52), (101) to (103), (105) to (107), (111), (112), (115), (119) to (124), (126) to (130), (133) to (135), (139), (142), (144) to (146), (149) to (151), (153), (154), (216) and (217) obtained by Formulation Example 5 were diluted with water so that the active ingredient concentration was 500 ppm, to prepare spray solutions for test. Separately, on a rice seedling (2 weeks after sowing, second leaf spreading stage) planted on a plastic cup, the drug solutions for test prepared as described above were sprayed each in an amount of 10 ml. After drying of the drug solution sprayed on rice, 20 first instar larvae of Nilaparvata lugens were released, and kept in a greenhouse of 25° C. for 6 days. Thereafter, the number of Nilaparvata lugens […] on rice was checked, and the control value was calculated according to the following formula. Control value (%)={1-(Cb×Tai)/(Cai×Tb)}×100 Letters in the formula represent the following meanings. Cb: the number of insect before treatment on non-treated district Cai: the number of insect in observation on non-treated district Tb: the number of insect before treatment on treated district Tai: the number of insect in observation on treated district
As for `CC[S+]([O-])c1cnccc1-c1nc2cc(C(F)(F)F)ccc2n1C` (stereo not drawn) [present active compound 21, 2-(3-ethanesulfinylpyridin-4-yl)-1-methyl-5-trifluoromethyl-1H-benzimidazole], the pest or weed control at 500 ppm is no less than 90%.

For `Cn1c(-c2cc[n+]([O-])cc2)nc2cc(C(F)(F)F)ccc21` [present active compound 24, 1-methyl-2-(1-oxypyridin-4-yl)-5-trifluoromethyl-1H-benzimidazole], the pest or weed control at 500 ppm was no less than 90%.

Turning to `CCSc1cnccc1-c1nc2cc(C(F)(F)F)ccc2n1C1CC1` [present active compound 32, 1-cyclopropyl-2-(3-ethylthiopyridin-4-yl)-5-trifluoromethyl-1H-benzimidazole], the pest or weed control at 500 ppm is no less than 90%.

As for `CC[S+]([O-])c1cnccc1-c1nc2cc(C(F)(F)F)cnc2n1C` (stereo not drawn) [present active compound 52, 2-(3-ethanesulfinylpyridin-4-yl)-3-methyl-6-trifluoromethyl-3H-imidazo[4,5-b]pyridine], the pest or weed control at 500 ppm is no less than 90%.

Regarding `Cn1c(-c2ccncc2OCC(C)(C)C)nc2cc(C(F)(F)F)cnc21` [present active compound 111], the pest or weed control at 500 ppm is no less than 90%.

With `CC(C)COc1cnccc1-c1nc2cc(C(F)(F)F)cnc2n1C` [present active compound 112], the pest or weed control at 500 ppm is no less than 90%.

For `Cn1c(-c2ccncc2S)nc2cc(C(F)(F)F)cnc21` [present active compound 115], the pest or weed control at 500 ppm is no less than 90%.

Take `Cn1c(-c2ccncc2C(=O)NCC#N)nc2cc(C(F)(F)F)cnc21` [present active compound 142]: the pest or weed control at 500 ppm is no less than 90%.

On to `Cn1c(-c2ccncc2SCC#N)nc2cc(C(F)(F)F)cnc21` [present active compound 153], for which the pest or weed control at 500 ppm was no less than 90%.

Regarding `Cn1c(-c2ccncc2SCC#N)nc2cc(C(F)(F)F)ccc21` [present active compound 154], the pest or weed control at 500 ppm was no less than 90%.

In a further test the test system is Nilaparvata lugens. Put plainly: Test Example 9: foot drench of rice seedling, twenty first instar larvae of Nilaparvata lugens. The conditions noted are these: soil, 144 h, 5 ml drench at foot of rice seedling, kept 7 days, twenty first instar larvae released, further 6 days. It is filed as in vivo. How it is done: The formulations of the present active compounds (6), (7), (18), (22), (25), (30), (33), (46), (47), (53), (101) to (103), (106), (121) to (124), (126) to (128), (135), (139), (216) and (217) obtained by Formulation Example 5 were diluted with water so that the active ingredient concentration was 500 ppm, to prepare diluted solutions for test. Separately, a rice seedling (2 weeks after sowing, second leaf spreading stage) planted on a plastic cup was drenched at its foot with each 5 ml of the diluted solutions, and kept in a greenhouse of 25° C. for 7 days. Twenty first instar larvae of Nilaparvata lugens were released, and further kept in the greenhouse for 6 days, then, the number of insect of living Nilaparvata lugens […] on rice was checked, and the control value was calculated according to the following formula. Control value (%)={1-(Cb×Tai)/(Cai×Tb)}×100 Letters in the formula represent the following meanings. Cb: the number of insect before treatment on non-treated district Cai: the number of insect in observation on non-treated district Tb: the number of insect before treatment on treated district Tai: the number of insect in observation on treated district
As to `C[S+]([O-])c1cnccc1-c1nc2cc(C(F)(F)F)ccc2n1C1CC1` (stereo not drawn) [present active compound 30, 1-cyclopropyl-2-(3-methanesulfinylpyridin-4-yl)-5-trifluoromethyl-1H-benzimidazole], the pest or weed control at 500 ppm was no less than 90%.

Consider `CC[S+]([O-])c1cnccc1-c1nc2cc(C(F)(F)F)ccc2n1C1CC1` (stereo not drawn) [present active compound 33, 1-cyclopropyl-2-(3-ethanesulfinylpyridin-4-yl)-5-trifluoromethyl-1H-benzimidazole], for which the pest or weed control at 500 ppm is no less than 90%.
